Laboratory results published in US20230172849A1, “INHALED STATINS FOR TREATMENT OF VIRAL RESPIRATORY DISEASES” (priority 2020, published 2023).
pKd: −log10 of the molar value. “Also recorded” adds a separate entry of the source. Read-outs that look alike come from different tables or passages of the source.

Assays:
[1] = molecular target: SARS-CoV-2 Spike S1 (RBD) (Severe acute respiratory syndrome coronavirus 2, UniProt P0DTC2); test: biochemical; format: binding
SARS-CoV-2 [2] = format: cell-based
SARS-CoV-2 [3] = test: SARS-CoV-2 viral load by RT-qPCR in Calu-3 supernatant; format: cell-based
[4] = system: SARS-CoV-2-induced cytokine and chemokine production; format: cell-based; details: Calu-3 cells; Cases A-C
SARS-CoV-2 [5] = test: hamster model of SARS-CoV-2 infection, intranasally inhaled treatment; format: in vivo
SARS-CoV-2 [6] = test: combination therapy, viral load by RT-PCR (ORF1ab gene) in Calu-3 cells; format: cell-based; parameters: key to enhanced decrease of viral load, combination vs two single agents: Each combination that showed an enhanced decrease of viral load as compared with the two single agents is denoted by “E”; Combinations that showed a slight trend towards an enhanced decrease of viral load as compared with the two single agents is denoted by “(e)”; —
Calu-3 cells = Calu-3 cells or Vero cells

## O=C([O-])C[C@H](O)C[C@H](O)/C=C/c1c(C2CC2)nc2ccccc2c1-c1ccc(F)cc1.O=C([O-])C[C@H](O)C[C@H](O)/C=C/c1c(C2CC2)nc2ccccc2c1-c1ccc(F)cc1.[Ca+2] [INS103, Pitavastatin Calcium]
[1]; MST binding assay
  binding to SARS-COV-2 S-protein (in words): bind with SARS-COV-2 S-protein at nanomolar (nM) concentrations
[1]; Table 1, MST, 25 nM labelled SARS-CoV-2 S1, read-out: Affinity
  pKd: 6.00 to 6.17
[1]; Table 1, binding to SARS-CoV-2 S1
  Remarks: Good binding
[1]; Table 1, signal to noise ratio of MST binding
  S/N: 14.4-17.3
[1]; Table 2, read-out: Affinity (nM) of binding to SARS-COV2 Spike protein
  Kd: 678 to 1000 nM
SARS-CoV-2 [2]; Calu-3 cells
  SARS-CoV-2-induced loss of cell viability in Calu-3 cells (overall conclusion): inhibited SARS-CoV-2-induced loss of cell viability
SARS-CoV-2 [2]; Case A: compound added 1 h after infection, 72 h contact
  protection against virus-induced loss of cell viability: dose-dependent protection
SARS-CoV-2 [2]; Case A: compound added 1 h after infection, 72 h contact, 0.2 uM
  Average (percent cell viability): 4.83%
SARS-CoV-2 [2]; Case A: compound added 1 h after infection, 72 h contact, 1 uM
  Average (percent cell viability): 9.66%
SARS-CoV-2 [2]; Case A: compound added 1 h after infection, 72 h contact, 5 uM
  Average (percent cell viability): 17.37%
SARS-CoV-2 [2]; Case B: compound added 24 h after infection, 48 h contact, 0.2 uM
  Average (percent cell viability): 0.5243%
SARS-CoV-2 [2]; Case B: compound added 24 h after infection, 48 h contact, 1 uM
  Average (percent cell viability): 1.724%
SARS-CoV-2 [2]; Case B: compound added 24 h after infection, 48 h contact, 5 uM
  Average (percent cell viability): −3.025%
SARS-CoV-2 [2]; Case C: compound added 48 h after infection, 24 h contact, 0.2 uM
  Average (percent cell viability): 1.847%
SARS-CoV-2 [2]; Case C: compound added 48 h after infection, 24 h contact, 1 uM
  Average (percent cell viability): −1.192%
SARS-CoV-2 [2]; Case C: compound added 48 h after infection, 24 h contact, 5 uM
  Average (percent cell viability): −1.208%
SARS-CoV-2 [2]; Case D: pre-treated 6 h, then infected 72 h, 0.2 uM
  Average (percent cell viability): 34.83%
SARS-CoV-2 [2]; Case D: pre-treated 6 h, then infected 72 h, 1 uM
  Average (percent cell viability): 32.21%
SARS-CoV-2 [2]; Case D: pre-treated 6 h, then infected 72 h, 5 uM
  Average (percent cell viability): 28.3%
SARS-CoV-2 [2]; Case D: pre-treated 6 hours, then infected 72 hours
  protection against virus-induced loss of cell viability: dose-independent protection
SARS-CoV-2 [2]; Case D: pre-treated 6 hours, then infected 72 hours, listed as INS-103
  protection against virus-induced loss of cell viability: inhibit SARS-CoV-2-induced loss of cell viability
SARS-CoV-2 [2]; Case E: pre-treated 24 h, then infected 72 h, 0.2 uM
  Average (percent cell viability): −3.00%
SARS-CoV-2 [2]; Case E: pre-treated 24 h, then infected 72 h, 1.0 uM
  Average (percent cell viability): −0.20%
SARS-CoV-2 [2]; Case E: pre-treated 24 h, then infected 72 h, 5.0 uM
  Average (percent cell viability): 46.71%
SARS-CoV-2 [2]; Case E: pre-treated 24 hours, then infected 72 hours, high and medium doses of INS102, high dose of INS103
  protection against virus-induced loss of cell viability: dose-dependent protection
SARS-CoV-2 [2]; Case F: 1 hour, then virus 72 hours, high dose of INS102, all doses of INS103
  anti-viral protection (cell viability): dose-dependent anti-viral protection
SARS-CoV-2 [2]; Case F: compound 1 h before infection (coinc 1 h), then virus 72 h, 0.2 uM
  Average (percent cell viability): 9.881%
SARS-CoV-2 [2]; Case F: compound 1 h before infection (coinc 1 h), then virus 72 h, 1 uM
  Average (percent cell viability): 15.82%
SARS-CoV-2 [2]; Case F: compound 1 h before infection (coinc 1 h), then virus 72 h, 5 uM
  Average (percent cell viability): 19.96%
SARS-CoV-2 [3]; Cases A-C, 5, 1, 0.2 μM
  SARS-CoV-2 viral load: dose-dependently reduced viral load
SARS-CoV-2 [3]; high dose 5 uM
  SARS-CoV-2 viral load: reduced SARS-CoV-2 viral load
[4]
  SARS-CoV-2-induced cytokine and chemokine production: inhibited
SARS-CoV-2 [5]; 3 mg/kg i.n., Day 1
  viral titers in throat swabs: reduced viral titers
SARS-CoV-2 [5]; 3 mg/kg i.n., Day 3 post-infection
  viral titer in the nasal swabs and tracheas: reduction of viral titer
SARS-CoV-2 [5]; 3 mg/kg i.n., Day 3 post-infection, R4 samples
  viral titer in lung samples: significant decrease in viral titer
SARS-CoV-2 [5]; 3 mg/kg i.n., day 6, virus-infected controls ˜50%
  percentage of affected lung (inflammation): ~30%
SARS-CoV-2 [5]; 3 mg/kg i.n., days 2 or 3
  viral titers in throat swabs (reduction trend): not observed
SARS-CoV-2 [5]; 3 mg/kg i.n., vs DPBS or control vehicle (DV)
  viral titers from the nasal swabs: trend of reduced viral titers
SARS-CoV-2 [5]; 3 mg/kg i.n., vs controls
  lung inflammation (histopathology): reduction in acute ling inflammation; also recorded: mild/moderate reduction in lung inflammation
SARS-CoV-2 [5]; pitavastatin 3 mg/kg i.n., D-2 to 5, statistical significance at day 4
  weight loss of infected hamsters: less weight loss
SARS-CoV-2 [6]; FIGS. 30, 31, statin and SARS-CoV-2 (MOI 0.01) mixed 1 hour at room temperature, 24 hours post infection
  decrease in viral load, combination with remdesivir or dexamethasone vs monotherapies: enhanced
SARS-CoV-2 [6]; statin 0.2 μM + Dex 0.1 μM
  enhanced decrease of viral load, combination vs two single agents: —
SARS-CoV-2 [6]; statin 0.2 μM + Dex 1 μM
  enhanced decrease of viral load, combination vs two single agents: (e)
SARS-CoV-2 [6]; statin 0.2 μM + Dex 10 μM
  enhanced decrease of viral load, combination vs two single agents: —
SARS-CoV-2 [6]; statin 0.2 μM + Remde 1
  enhanced decrease of viral load, combination vs two single agents: (e)
SARS-CoV-2 [6]; statin 0.2 μM + Remde 10
  enhanced decrease of viral load, combination vs two single agents: (e)
SARS-CoV-2 [6]; statin 0.2 μM + Remde 100
  enhanced decrease of viral load, combination vs two single agents: (e)
SARS-CoV-2 [6]; statin 1 μM + Dex 0.1 μM
  enhanced decrease of viral load, combination vs two single agents: —
SARS-CoV-2 [6]; statin 1 μM + Dex 1 μM
  enhanced decrease of viral load, combination vs two single agents: enhancement in the decrease of viral load and E
SARS-CoV-2 [6]; statin 1 μM + Dex 10 μM
  enhanced decrease of viral load, combination vs two single agents: —
SARS-CoV-2 [6]; statin 1 μM + Remde 1
  enhanced decrease of viral load, combination vs two single agents: —
SARS-CoV-2 [6]; statin 1 μM + Remde 10
  enhanced decrease of viral load, combination vs two single agents: —
SARS-CoV-2 [6]; statin 1 μM + Remde 100
  enhanced decrease of viral load, combination vs two single agents: —
SARS-CoV-2 [6]; statin 5 μM + Dex 0.1 μM
  enhanced decrease of viral load, combination vs two single agents: E
SARS-CoV-2 [6]; statin 5 μM + Dex 1 μM
  enhanced decrease of viral load, combination vs two single agents: —
SARS-CoV-2 [6]; statin 5 μM + Dex 10 μM
  enhanced decrease of viral load, combination vs two single agents: —
SARS-CoV-2 [6]; statin 5 μM + Remde 1
  enhanced decrease of viral load, combination vs two single agents: —
SARS-CoV-2 [6]; statin 5 μM + Remde 10
  enhanced decrease of viral load, combination vs two single agents: —
SARS-CoV-2 [6]; statin 5 μM + Remde 100
  enhanced decrease of viral load, combination vs two single agents: —
Calu-3 cells
  cytotoxicity: not cytotoxic
